Data: US8779141B2, “Viral inhibitors” (Gilead Sciences, Inc., priority 2002, dated 2014)
Converted amounts (≈) assume the structure as drawn. Where two headings read alike, the source gives them in different places.

Assays:
[1] = tested on: BVDV-1 (strain PE515); experiment: Anti-BVDV assay, virus-induced cytopathic effect in MDBK cells (MTS); format: cell-based, Bovine Viral Diarrhea Virus; settings: reduction of virus induced cytopathic effect in MDBK cells by 50%
Protocol: (§1) Madin-Darbey Bovine Kidney (MDBK) cells were maintained in Dulbecco's modified Eagle medium (DMEM) supplemented with BVDV-free 5% fetal calf serum (DMEME-FCS) at 37° C. in a humidified, 5% CO2 atmosphere. BVDV-1 (strain PE515) was used to assess the antiviral activity in MDBK cells. Vero cells were maintained in the same way as MDBK cells. Vero cells were infected with Coxsackie B3 virus (strain Nancy).
Ninety-six-well cell culture plates were seeded with MDBK cells in DMEM-FCS so that cells reached 24 hr later confluency. Then medium was removed and serial 5-fold dilutions of the test compounds were added in a total volume of 100 ul, after which the virus inoculum (100 ul) was added to each well. […] Uninfected cells and cells receiving virus without compound were included in each assay plate. After 5 days, medium was removed and 90 μl of DMEM-FCS and 10 ul of MTS/PMS solution (Promega) was added to each well. Following a 2 hr incubation period at 37° C. the optical density of the wells was read at 498 nm in a microplate reader.

[2] = tested on: MDBK cells; experiment: Cytostatic effect on exponentially growing MDBK cells (MTS); format: cell-based, Bovine; settings: for MTC: Table 10, mean toxic concentration, reduces growth of exponentially growing MDBK cells by 50%
Protocol: (§2) Madin-Darbey Bovine Kidney (MDBK) cells were maintained in Dulbecco's modified Eagle medium (DMEM) supplemented with BVDV-free 5% fetal calf serum ([…]) at 37° C. in a humidified, 5% CO2 atmosphere. […] Vero cells were maintained in the same way as MDBK cells. […] The effect of the drugs on exponentially growing MDBK cells was assessed as follows. Cells were seeded at a density of 5000 cell/well in 96 well plates in MEM medium (Gibco) supplemented with 10% fetal calf serum, 2 mM L-glutamine (Life Technologies) and bicarbonate (Life Technologies). […] Cultures were then again further incubated for 3 days after which the effect on cell growth was quantified by means of the MTS method (Promega).

[3] = tested on: BVDV (strain NADL); format: cell-based, Bovine Viral Diarrhea Virus; settings: GPJN22-resistant BVDV (F224S)
Protocol: Wild type BVDV (strain NADL) was twice plaque purified on MDBK cells. The entire coding region of the genome of this virus was sequenced. This plaque purified and sequenced virus was then cultured in the presence of increasing drug concentrations of compound (GPJN22). Following 12 passages, the virus was at least 25 fold resistant to compound GPJN22. The resistant virus preparation was again plaque purified. The entire coding region of the genome of this virus was sequenced. A mutation F224S in the RNA dependent RNA polymerase gene of the virus was detected in 4 out of 4 clones of this virus; no other mutations were detected in the resistant viruses. The GPJN22-resistant virus was cross-resistant with VP32947 (see Table 8). VP32947 is an earlier reported selective inhibitor of BVDV replication [Baginski S G et al., Proc Natl Acad Sci USA. 2000 Jul. 5; 97(14):7981-6]. In VP32947-resistant BVDV, a similar mutation was identified as being responsible for the drug-resistance. To confirm that the F224S mutation is indeed responsible for the resistant phenotype, the mutation was reintroduced by site-directed mutagenesis in an full-length infectious clone of the BVDV (strain NADL) [Vassilev et al., J. Virol. 1997 January; 71(1):471-8.].

[4] = tested on: HCV replicon in Huh-5-2 cells; experiment: Anti-HCV replicon assay, luciferase activity in Huh-5-2 cells; format: cell-based; settings: Hepatitis C virus, Table 11, inhibition of luciferase activity in the replicon system by 50%
Protocol: (§3) Cells were seeded at a density of 7000 cells per well in 96 well View Plate™ (Packard) in medium containing the same components as described above, except for G418. Cells were allowed to adhere and proliferate for 24 hr. At that time, culture medium was removed and serial dilutions of the test compounds were added in culture medium lacking G418. Interferon alfa 2a (500 IU) was included as a positive control. Plates were further incubated at 37° C. and 5% CO2 for 72 hours. Replication of the HCV replicon in Huh-5 cells results in luciferase activity in the cells. Luciferase activity is measured by adding 50 μl of 1× Glo-lysis buffer (Promega) for 15 minutes followed by 50 ul of the Steady-Glo Luciferase assay reagent (Promega). Luciferase activity is measured with a luminometer and the signal in each individual well is expressed as a percentage of the untreated cultures. […] Instead the density of the culture is measured by means of the MTS method (Promega).

[5] = Proliferation of exponentially growing Huh-5-2 cells (MTS); format: cell-based; settings: human, exponentially growing Huh-5-2 cells (HCV replicon cell line); Table 11; inhibition of proliferation of exponentially growing Huh-5-2 cells by 50%
Protocol: as §3

[6] = Cytostatic effect on exponentially growing MDBK cells (MTS); format: cell-based, Bovine; settings: bovine; Table 9; reduction of growth of exponentially growing MDBK cells by 50%; mean of 2-5 determinations
Protocol: as §2

[7] = tested on: HCV replicon (RNA) synthesis in Huh-5-2 cells; experiment: Quantitative analysis of HCV replicon RNA by Taqman real-time RT-PCR in Huh-5-2 cells; format: cell-based, Hepatitis C Virus; settings: for Delta CT: higher value = more profound inhibition of viral RNA synthesis; for CT: real-time RT-PCR, untreated 28.86 ± 0.04
Protocol: Replicon cells were plated at 7.5×10^3 cells per well in a 96-well plate plates at 37° C. and 5% CO2 in Dulbecco's modified essential medium containing 10% fetal calf serum, 1% nonessential amino acids and 1 mg/ml Geneticin. After allowing 24 h for cell attachment, different dilutions of compound were added to the cultures. Plates were incubated for 5 days, at which time RNA was extracted using the Qiamp Rneazyi Kit (Qiagen, Hilden, Germany). […] After initial activation of uracil-N-glycosylase at 50° C. for 2 minutes, RT was performed at 60° C. for 30 minutes, followed by inactivation of uracil-N-glycosylase at 95° C. for 5 minutes. Subsequent PCR amplification consisted of 40 cycles of denaturation at 94° C. for 20 seconds and annealing and extension at 62° C. for 1 minute in an ABI 7700 sequence detector. For each PCR run, negative template and positive template samples were used. The cycle threshold value (Ct-value) is defined as the number of PCR cycles for which the signal exceeds the baseline, which defines a positive value. The sample was considered to be positive if the Ct-value was <50. Results are expressed as genomic equivalents (GE).

[8] = tested on: Coxsackie B3 virus (strain Nancy); experiment: Anti-coxsackie virus assay, cytopathic effect in Vero cells (MTS); format: cell-based; settings: Enterovirus B, Table 13, reduction of virus (CBV-3 Nancy strain)-induced cytopathic effect in Vero cells by 50%
Protocol: as §1
(§4) Ninety-six-well cell culture plates were seeded with Vero cells in DMEM medium containing 10 fetal calf serum (FCS) so that cells reached confluency 24-48 hr later. Medium was then removed and serial 5-fold dilutions of the test compounds were added in a total volume of 100 ul, after which the virus inoculum (100 μl) was added to each well. […] Uninfected cells and cells receiving virus without compound were included in each asay plate. After 5 days, the medium was removed and 90 μl of DMEM-FCS and 10 μl of MTS/PMS solution (Promega) was added to each well. Following a 2 hr incubation period at 37° C., the optical density of the wells was read at 498 nm in a microplate reader. The 50% effective concentration (EC50) value was defined as the concentration of compound that protects 50% of the cell monolayer from virus-induced cytopathic effect.

[9] = tested on: Vero cells; experiment: Metabolism of confluent Vero cells (MTS); format: cell-based; settings: Table 13; reduction of metabolism of confluent Vero cells by 50%, MTS method
Protocol: as §1, §4

[10] = Bovine viral diarrhea virus isolates and strains, Table 10, read-out: EC50
[11] = Bovine viral diarrhea virus isolates and strains, Table 9, BVDV strain PE515, mean of 2-5 determinations, read-out: EC50

CCCN(CCC)CCSc1nnc2c(n1)[nH]c1ccccc12 [VP32947, 3-[((2-dipropylamino)ethyl)thio]-5H-1,2,4-triazino[5,6-b]indole, reference compound]
EC50 ([1]; Table 9, BVDV strain PE515, mean of 2-5 determinations): 0.003 µg/mL (≈ 0.00911 µM) | CC50 ([2]; Table 9, reduction of growth of exponentially growing MDBK cells by 50%, mean of 2-5 determinations): 47 µg/mL (≈ 143 µM) | cross-resistance of the GPJN22-resistant virus [3]: cross-resistant

Fc1ccccc1-c1nc2ccn(Cc3ccc(Cl)cc3)cc-2n1 [GPJN-112, 5-[(4-Chlorophenyl)methyl]-2-(2-fluorophenyl)-5H-imidazo[4,5-c]pyridine]
EC50 [1, 10]: 0.0049 µg/mL (≈ 0.0145 µM) | MTC [2]: 20 µg/mL | EC50 [4]: 0.29 µg/mL (≈ 0.859 µM) | CC50 at 72 hours [5]: > 17 µg/mL

Brc1ccc(Cn2ccc3nc(-c4ccccn4)nc-3c2)cc1 [GPJN-58, 5-[(4-Bromophenyl)methyl]-2-(2-pyridinyl)-5H-imidazo[4,5-c]pyridine]
EC50 [1, 11]: 0.052 µg/mL (≈ 0.142 µM) | CC50 at 3 days [6]: 8.1 µg/mL (≈ 22.2 µM) | EC50 [4]: 0.13 µg/mL (≈ 0.356 µM) | CC50 at 72 hours [5]: 2 µg/mL (≈ 5.48 µM) | Delta CT ([7]; 0.0016 ug/ml): 0.05 | CT ([7]; 0.0016 ug/ml): 28.91 | Delta CT ([7]; 0.008 ug/ml): 0.89 | CT ([7]; 0.008 ug/ml): 29.75 | Delta CT ([7]; 0.04 ug/ml): 1.03 | CT ([7]; 0.04 ug/ml): 29.89 | Delta CT ([7]; 0.2 ug/ml): 1.14 | CT ([7]; 0.2 ug/ml): 30.00 | Delta CT ([7]; 1 ug/ml): 4 | CT ([7]; 1 ug/ml): 32.86

Fc1ccccc1-c1nc2ccn(Cc3ccc(I)cc3)cc-2n1 [GPJN-113, 2-(2-Fluorophenyl)-5-[(4-iodophenyl)methyl]-5H-imidazo[4,5-c]pyridine]
EC50 [1, 10]: 0.0031 µg/mL (≈ 0.00722 µM) | MTC [2]: 20 µg/mL | EC50 [4]: 0.17 µg/mL (≈ 0.396 µM) | CC50 at 72 hours [5]: 14 µg/mL (≈ 32.6 µM)

Fc1cccc(F)c1Cn1ccc2nc(-c3c(F)cccc3F)nc-2c1 [GPRTI-8, 2-(2,6-Difluorophenyl)-5-[(2,6-difluorophenyl)methyl]-5H-imidazo[4,5-c]pyridine]
EC50 [1, 11]: 0.137 µg/mL (≈ 0.383 µM) | CC50 at 3 days [6]: > 79 µg/mL | EC50 [8]: 12.2 µg/mL (≈ 34.1 µM) | TC50 [9]: >100 µg/mL | melting point: 195 to 197 °C
